For orientation: LD50 means the dose at which mortality reaches 50%.

Where a name gives a salt, the structure may show the parent alone. Some results are limits rather than exact numbers.

Data set [1] deals with water-immersion stress-induced gastric ulcer (Slc:SD rats). In words: Water-immersion stress ulceration method. Type of data set: in vivo, rat (male Slc:SD). The following applies: for Inhibition rate: vs non-treated control. As to the method:
The stomachs were incised along the greater curvature, and the ulcers thus induced were measured for length under the stereoscopic microscope (magnification,×10), whereby the total sum of the lengths was taken as an ulcer index (U.I., in mm). The test substance was given orally to rats in the form of a 4% gum arabic suspension 30 minutes before stress loading.

The next data set can be described thus: Acute toxicity. The following applies: mouse, in vivo; male ddY mice, single oral dose, observed for 7 days. The text has this: A group of five male ddY mice (4-weeks aged) was used for testing.
The compound of Example 1 was suspended in 4% gum arabic solution to prepare a test pharmaceutical, which was given orally to each test animals once.

Where [2] appears, read: 30 mg/kg, oral, 30 minutes before stress loading, 7 hours stress.
Setting [3] is: 10 mg/kg, oral, 30 minutes before stress loading, 7 hours stress.

The compound `CN/C(=N/CCSCc1nc[nH]c1C)NC#N` [Cimetidine, reference compound] registered an Inhibition rate in data set [1] (30 mg/kg, control reference (Cimetidine), no significance mark) of 61.4%. The “ulcer index (U.I.), Mean ± S.E.” value in data set [1] (setting [2]) is 5.2 ± 3.40 mm.
As to `O=C(CNc1ccncc1)Nc1ccccc1Nc1ccccc1` [Example 1, N-[2-(phenylamino),phenyl]-2-[(4-pyridinyl)-amino]actetamide hydrochloride], the “ulcer index (U.I.), Mean ± S.E.” value came out at 13.0 ± 4.47 mm in data set [1] (setting [3]); 3.8 ± 1.66 mm in data set [1] (setting [2]); 1.5 ± 1.31 mm in data set [1] (100 mg/kg, oral, 30 minutes before stress loading, 7 hours stress). The Inhibition rate in data set [1] (setting [3]) is given as 2.8%; in data set [1] (30 mg/kg, oral, 30 minutes before stress loading, 7 hours stress, *p < 0.05), 71.3%; in data set [1] (100 mg/kg, oral, 30 minutes before stress loading, 7 hours stress, **p < 0.01), 88.8%. For the same compound, in the data set “Acute toxicity”, the LD50 at 168 h is no less than 2000 mg/kg.
